The target in one test is T1, LXRβ/SRC1 (Homo sapiens, UniProt P55055).
T1 construct: human his-tagged LXRβ LBD (216-461); His tag; made in house; host or cells: Escherichia coli BL21(DE3)
T1 sequence (P55055 215-460 limits assumed): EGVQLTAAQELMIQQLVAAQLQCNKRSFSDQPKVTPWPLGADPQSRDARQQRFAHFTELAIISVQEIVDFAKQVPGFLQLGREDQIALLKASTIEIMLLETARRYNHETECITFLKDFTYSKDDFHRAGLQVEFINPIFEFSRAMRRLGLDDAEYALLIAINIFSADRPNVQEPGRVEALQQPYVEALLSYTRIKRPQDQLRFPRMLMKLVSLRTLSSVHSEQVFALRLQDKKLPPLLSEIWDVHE
T1 sequence (Q15788 with tags, fused parts or gaps partner limits assumed): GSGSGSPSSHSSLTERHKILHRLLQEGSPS
Nature of the test: SPR cofactor recruitment, LXRβ LBD binding to immobilized SRC1 coactivator peptide. The method, then:
The peptides carried an N-terminal biotin for surface immobilization on a Xantec NID200M Sensor Chip (NTA-derivatized carboxymethyldextran hydrogel, XanTec bioanalytics GmbH) preloaded with Ni^2+. […] LXRα and LXRβ LBD proteins were serially diluted in SPR running buffer (10 mM HEPES, 150 mM NaCl, and 0.05% Tween 20, pH 7.4) to a broad range of concentrations (0.02–10 µM) and equilibrated with tested compound (50 μM) prior to the sample injection over a modified biosensor surface. LXR-ligand complexes were injected in quick succession for 120 s over immobilized cofactor peptides and reference surfaces along with blank samples followed by 900 s of dissociation. The binding level at equilibrium was monitored for all samples, including the reference sample that contained DMSO at equal amount as tested compounds. All data were normalized to this reference sample in order to quantify the effects on peptide binding without bias by receptor instability. The surface was regenerated with 0.5% (w/v) SDS after each injection. Binding responses in the steady-state region of the sensorgrams were plotted against LXR LBD concentration to determine the overall equilibrium-binding affinity by fitting the data to nonlinear regression (Prism 8; GraphPad).

Test [1] concerns the target T2, LXRα LBD (Homo sapiens, UniProt Q13133).
T2 sequence (Q13133 200-447): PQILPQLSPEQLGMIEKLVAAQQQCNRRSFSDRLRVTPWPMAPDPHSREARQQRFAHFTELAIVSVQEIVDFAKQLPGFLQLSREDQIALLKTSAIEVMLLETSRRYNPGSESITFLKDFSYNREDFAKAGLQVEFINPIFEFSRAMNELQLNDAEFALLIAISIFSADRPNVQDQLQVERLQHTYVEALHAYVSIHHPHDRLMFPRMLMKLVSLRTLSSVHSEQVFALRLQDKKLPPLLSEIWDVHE
The test can be described thus: differential HDX-MS of LXRα LBD (apo vs ligand-bound). To be noted: HDX-MS. Set-up: Human his-tagged LXRα LBD (200-447); His tag; made in house; host or cells: Escherichia coli BL21(DE3). The method, then: (§1) Prior to the deuterium incorporation experiments, 10 µM apo LXR was incubated with 10× excess of ligand or equal volume of DMSO for 30 min at room temperature. In the experiments with cofactors, 15× excess of the SRC1 coactivator peptide and the NCOR1 corepressor peptide were added to the ligand-bound or apo proteins, respectively, and incubated for 30 min at room temperature. […] A fully deuterated sample was generated by incubating protein with 4 M guanidine-HCl in D2O for 30 min at 45 °C. Exchange reactions were performed with a CTC PAL sample handling robot (LEAP Technologies). Labeling times were 30, 60, 180, 600, and 1800 s in the kinetics experiments. Differential HDX of a complete compound selection was measured after 30 and 600 s of labeling time points. Reactions were conducted by incubating 4 µl of LXR with 50 µl of D2O buffer (containing 25 mM Tris-HCl (pD 7.6), 50 mM NaCl, 10% glycerol, and 1 mM TCEP). The exchange reaction was stopped by the addition of 50 µl of quench solution (3 M urea, 0.1% TFA) followed by immediate injection into a Enzymate BEH Pepsin 2.1 × 30 mm Column (Waters, UK) for protein digestion (2 min at 24 °C). Peptic digest was further injected on a Waters nanoACQUITY UPLC System where peptides were first desalted by trapping for 3 min on a VanGuard Pre-Column Acquity UPLC BEH C18 (1.7 μm; 2.1 × 5 mm), and then eluted over a 6-min 5–40% (vol/vol) acetonitrile (containing 0.1% formic acid) gradient into a Waters Synapt G2-Si mass spectrometer. Peptide separation was conducted at 0.1 °C. All exchange reactions were performed in triplicates.
(§2) Peptides from three samples of non-deuterated LXR were identified by using the ProteinLynx Global Server (PLGS Waters, UK). Peptides with an intensity of over 5000, a mass error < 5 ppm, and present in at least two of the three data acquisitions were pooled and imported into the DynamX data analysis software (Waters, UK). After a first round of automated spectral processing by using DynamX, each peptide was inspected manually for suitability for further analysis.
(§3) For pairwise comparison, MEMHDX software was used to identify statistically significant changes of deuterium uptake. For all peptides, a value of relative exchange per amino acid was corrected to back exchange. The mean deuteration level per amino acid was calculated by using Matlab (Mathworks)[69] and subsequently mapped onto the crystal structures with PyMOL (Schrodinger LLC). For structural representation, loop modeling with MOE (Chemical Computing Group Inc.) was applied on 2ACL.pdb file for LXRα LBD, and 1PQC.pdb for LXRβ LBD.

The target of test [2] is T2, LXRα LBD. Nature of the test: biochemical. The settings on record: Receptor-binding affinity pKi LXRα, value (SD, n independent experiments).
Description: (§5) The compounds were run in triplicate (binding assay) or in quadruplicate (transactivation assay). Standard deviations are indicated for individual experiments run more than once.
For test [3], the target named is T3, LXRβ LBD (Homo sapiens, UniProt P55055).
T3 sequence (P55055 215-460 limits assumed): T1 sequence (P55055 215-460 limits assumed)
The test can be described thus: biochemical. The settings on record: Receptor-binding affinity pKi LXRβ, value (SD, n independent experiments).
Description: as §5

The target of test [4] is T3, LXRβ LBD. Nature of the test: differential HDX-MS of LXRβ LBD (apo vs ligand-bound). The settings on record: after 30 s of deuterium exchange. Set-up: human his-tagged LXRβ LBD (216-461); His tag; made in house; host or cells: Escherichia coli BL21(DE3). The method, then: as §1, §2, §3
In another test the target is T4, LXRα (Homo sapiens, UniProt Q13133).
T4 construct: expression vectors pSG5-Gal4-LXRα LBD or pSG5-Gal4-LXRβ LBD; expressed in transfected cells; host or cells: U2OS osteosarcoma cells
T4 sequence (Q13133 209-447 limits assumed): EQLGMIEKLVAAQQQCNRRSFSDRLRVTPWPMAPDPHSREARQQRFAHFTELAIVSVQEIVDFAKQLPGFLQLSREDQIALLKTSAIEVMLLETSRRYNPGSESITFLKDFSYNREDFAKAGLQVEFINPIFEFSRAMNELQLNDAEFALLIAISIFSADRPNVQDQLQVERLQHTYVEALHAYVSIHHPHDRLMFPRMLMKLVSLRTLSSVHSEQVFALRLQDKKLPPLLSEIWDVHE
The test can be described thus: Gal4 one hybrid reporter gene (transactivation) assay in U2OS cells, LXRα. Format: cell-based. The method, then: (§4) Transactivation assays were performed in U2OS osteosarcoma cells (ATCC, USA). […] Ligands were added at ten different concentrations 2 h post transfection and the luciferase activity was measured after 40 h.

In a further test the target is T5, LXRβ (Homo sapiens, UniProt P55055).
T5 construct: expression vectors pSG5-Gal4-LXRα LBD or pSG5-Gal4-LXRβ LBD; expressed in transfected cells; host or cells: U2OS osteosarcoma cells
T5 sequence (P55055 222-460 limits assumed): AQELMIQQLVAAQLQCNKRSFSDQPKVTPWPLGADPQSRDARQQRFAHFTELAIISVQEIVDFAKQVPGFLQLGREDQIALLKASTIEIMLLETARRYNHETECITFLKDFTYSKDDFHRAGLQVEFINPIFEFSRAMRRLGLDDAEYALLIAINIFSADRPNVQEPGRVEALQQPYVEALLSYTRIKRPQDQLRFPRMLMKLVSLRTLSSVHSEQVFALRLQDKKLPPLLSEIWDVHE
Nature of the test: Gal4 one hybrid reporter gene (transactivation) assay in U2OS cells, LXRβ. Format: cell-based. The protocol:
as §4

In turn, `C[C@H](CC[C@@H]1OC1(C)C)[C@H]1CC[C@H]2[C@@H]3CC=C4C[C@@H](O)CC[C@]4(C)[C@H]3CC[C@]12C` [24,25EC, 24(S),25-epoxycholesterol, reference compound] returned a Kd at LXRβ/SRC1 of 2.5 µM. Further, the “stabilization of LXRα H12” value on LXRα LBD [1] is listed as “did not stabilize LXRα H12”. In addition, the Ki on LXRα LBD [2] is 0.275 µM; on LXRβ LBD [3] it was 0.132 µM. For the same compound, the “protection of LXRβ H11–H12 from deuterium exchange” value on LXRβ LBD [4] stood at 10%. For the same compound, the “agonist activity in the Gal4 reporter gene assay, LXRα” value on LXRα is recorded as “No signal was observed”. The EC50 at LXRα (U2OS cells, Gal4-LXRα LBD, value (SD, n), read-out: LXRα transactivation pEC50 (converted)) was > 50.1 µM; on LXRβ (LXRβ transactivation pEC50, U2OS cells, Gal4-LXRβ LBD, value (SD, n)), > 50.1 µM. In addition, the “agonist activity in the Gal4 reporter gene assay, LXRβ” value on LXRβ is “No signal was observed”.

For the origin of these results see article PMC6874530, “Structural analysis identifies an escape route from the adverse lipogenic effects of liver X receptor ligands” (Communications Biology, 2019).
